Target: T1, RNR (RNR1:RNR2 1:1) (Homo sapiens, UniProt P23921)
T1 sequence (P23921 1-792): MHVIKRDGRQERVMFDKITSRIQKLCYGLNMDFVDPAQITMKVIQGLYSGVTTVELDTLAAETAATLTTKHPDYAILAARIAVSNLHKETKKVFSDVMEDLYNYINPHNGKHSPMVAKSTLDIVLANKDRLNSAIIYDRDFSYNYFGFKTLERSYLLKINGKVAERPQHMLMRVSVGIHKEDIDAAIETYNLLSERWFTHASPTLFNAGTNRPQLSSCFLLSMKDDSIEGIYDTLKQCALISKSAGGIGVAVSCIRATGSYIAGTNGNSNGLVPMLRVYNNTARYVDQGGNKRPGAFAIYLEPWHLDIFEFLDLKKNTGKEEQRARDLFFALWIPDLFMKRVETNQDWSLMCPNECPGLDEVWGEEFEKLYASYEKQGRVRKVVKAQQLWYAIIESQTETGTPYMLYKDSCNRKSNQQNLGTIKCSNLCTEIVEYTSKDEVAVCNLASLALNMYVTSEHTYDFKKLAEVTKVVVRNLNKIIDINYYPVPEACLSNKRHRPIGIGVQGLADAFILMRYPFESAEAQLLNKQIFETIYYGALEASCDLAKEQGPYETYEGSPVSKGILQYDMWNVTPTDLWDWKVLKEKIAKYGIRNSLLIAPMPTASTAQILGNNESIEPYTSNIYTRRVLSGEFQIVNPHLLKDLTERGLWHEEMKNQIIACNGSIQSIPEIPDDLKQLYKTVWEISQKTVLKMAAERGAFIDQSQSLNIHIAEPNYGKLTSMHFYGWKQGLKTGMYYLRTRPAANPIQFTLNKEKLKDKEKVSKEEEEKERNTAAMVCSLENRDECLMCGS
Assay: RNR enzyme activity, rapid-fire mass spectrometry (RFMS) assay
Format: biochemical
Details: RNR 50 nM, CDP 5 μM, ATP 1 mM, 37° C., 45 min, compounds screened up to 50 μM, read-out: RF/MS IC50
Experimental: A rapid-fire mass spectrometry (RFMS) assay was used to assess RNR enzyme activity using a 384 well plate and a robotic platform.
The plate layout included two validated reference compounds (Triapine (3-AP) and Hydroxyurea (HU)): • A dose response in duplicate; top concentration: 5 μM (3-AP) and 250 μM (HU), semi-log dilutions. • Spike wells in triplicate randomly spotted at four concentrations: • 250 μM, 100 μM, 30 μM and 2 μM for HU • 5 μM, 2 μM, 0.6 μM and 0.04 μM for 3-AP
First, the multidrop pipes were saturated for 30 minutes with enzymatic solution. Then 30 μL of Stop solution was distributed in column 24. Next, 15 μL of enzyme was distributed in column 1 to 24. Next, a pre-incubation step of 15 minutes at room temperature occurred, followed by distribution of 15 μL of substrate solution (column 1 to 24). Next, the plate was incubated for 45 minutes at 37° C. 30 μL of Stop solution was distributed to columns 1 to 23.
The final parameters for the enzyme reactions were: • Incubation: 37° C., 45 min • [CDP]: 5 μM; [ATP]: 1 mM; [NADPH]: No • [RNR] final: 50 nM with 1:1 (RNR1:RNR2) ratio • Final volume: 30 μL • Stop solution: 6% HCOOH containing 2 μM of 15

Compound	IC50 [µM]
4-(3-azabicyclo[3.1.0]hexan-3-yl)-N-((1S,2R)-2-(6-fluoro-2,3-dimethylphenyl)-1-(5-oxo-4,5-dihydro-1,3,4-oxadiazol-2-yl)propyl)piperidine-1-sulfonamide [Example 105]	1 to 10
Cc1ccc(F)c(C(C)[C@H](NS(=O)(=O)N2CCCCC2)c2n[nH]c(=O)o2)c1C (stereo partly drawn) [Example 138, N-((1S)-2-(6-fluoro-2,3-dimethylphenyl)-1-(5-oxo-4,5-dihydro-1,3,4-oxadiazol-2-yl)propyl)piperidine-1-sulfonamide]	0.1 to 1
CCN(CC1CC1)S(=O)(=O)N[C@H](c1n[nH]c(=O)o1)[C@@H](C)c1c(F)ccc(C)c1C [Example 120]	10 to 100
Cc1ccc(F)c([C@H](C)[C@H](NS(=O)(=O)N2CCC(C)(C)CC2)c2n[nH]c(=O)o2)c1C [Example 114, N-((1S,2S)-2-(6-fluoro-2,3-dimethylphenyl)-1-(5-oxo-4,5-dihydro-1,3,4-oxadiazol-2-yl)propyl)-4,4-dimethylpiperidine-1-sulfonamide]	1 to 10
CC(=O)[C@@H]1CCCCN1S(=O)(=O)N[C@H](c1n[nH]c(=O)o1)[C@H](C)c1c(F)ccc(C)c1C [Example 17, (S)-2-acetyl-N-((1S,2R)-2-(6-fluoro-2,3-dimethylphenyl)-1-(5-oxo-4,5-dihydro-1,3,4-oxadiazol-2-yl)propyl)piperidine-1-sulfonamide]	10 to 100
Cc1ccc(F)c(C(C)[C@H](NS(=O)(=O)N2CCC(C(C)O)CC2)c2n[nH]c(=O)o2)c1C (stereo partly drawn) [Example 32, N-((1S)-2-(6-fluoro-2,3-dimethylphenyl)-1-(5-oxo-4,5-dihydro-1,3,4-oxadiazol-2-yl)propyl)-4-(1-hydroxyethyl)piperidine-1-sulfonamide]	1 to 10
Cc1ccc(F)c([C@H](C)[C@H](NS(=O)(=O)N2CCC3(CCO3)CC2)c2n[nH]c(=O)o2)c1C [Example 61, N-((1S,2S)-2-(6-fluoro-2,3-dimethylphenyl)-1-(5-oxo-4,5-dihydro-1,3,4-oxadiazol-2-yl)propyl)-1-oxa-7-azaspiro[3.5]nonane-7-sulfonamide]	10 to 100
Cc1ccc(F)c(C(C)[C@H](NS(=O)(=O)N2CCC(C#N)CC2)c2n[nH]c(=O)o2)c1C (stereo partly drawn) [Example 123, 4-cyano-N-((1S)-2-(6-fluoro-2,3-dimethylphenyl)-1-(5-oxo-4,5-dihydro-1,3,4-oxadiazol-2-yl)propyl)piperidine-1-sulfonamide]	0.1 to 1
Cc1ccc(F)c([C@@H](C)[C@H](NS(=O)(=O)N2CCC(Oc3ccccc3)CC2)c2n[nH]c(=O)o2)c1C [Example 55, N-((1S,2R)-2-(6-fluoro-2,3-dimethylphenyl)-1-(5-oxo-4,5-dihydro-1,3,4-oxadiazol-2-yl)propyl)-4-phenoxypiperidine-1-sulfonamide]	0.1 to 1
Cc1ccc(F)c([C@H](C)[C@H](NS(=O)(=O)N2CCC3(CCCCC3)CC2)c2n[nH]c(=O)o2)c1C [Example 88, N-((1S,2S)-2-(6-fluoro-2,3-dimethylphenyl)-1-(5-oxo-4,5-dihydro-1,3,4-oxadiazol-2-yl)propyl)-3-azaspiro[5.5]undecane-3-sulfonamide]	1 to 10
Cc1ccc(F)c([C@H](C)[C@H](NS(=O)(=O)N2CCC(C(F)F)CC2)c2n[nH]c(=O)o2)c1C [Example 44, 4-(difluoromethyl)-N-((1S,2S)-2-(6-fluoro-2,3-dimethylphenyl)-1-(5-oxo-4,5-dihydro-1,3,4-oxadiazol-2-yl)propyl)piperidine-1-sulfonamide]	1 to 10
Cc1ccc(F)c([C@H](C)[C@H](NS(=O)(=O)N2CCC3(CC2)CC(=O)N(C)C3)c2n[nH]c(=O)o2)c1C [Example 77, N-((1S,2S)-2-(6-fluoro-2,3-dimethylphenyl)-1-(5-oxo-4,5-dihydro-1,3,4-oxadiazol-2-yl)propyl)-2-methyl-3-oxo-2,8-diazaspiro[4.5]decane-8-sulfonamide]	10 to 100
Cc1ccc(F)c([C@@H](C)[C@H](NS(=O)(=O)N2CCC(Cl)CC2)c2n[nH]c(=O)o2)c1C [Example 5, 4-chloro-N-((1S,2R)-2-(6-fluoro-2,3-dimethylphenyl)-1-(5-oxo-4,5-dihydro-1,3,4-oxadiazol-2-yl)propyl)piperidine-1-sulfonamide]	0.1 to 1
Cc1ccc(F)c(C(C)[C@H](NS(=O)(=O)N2CCC(F)(F)CC2C)c2n[nH]c(=O)o2)c1C (stereo partly drawn) [Example 111, 4,4-difluoro-N-((1S)-2-(6-fluoro-2,3-dimethylphenyl)-1-(5-oxo-4,5-dihydro-1,3,4-oxadiazol-2-yl)propyl)-2-methylpiperidine-1-sulfonamide]	0.1 to 1
Cc1ccc(F)c(C(C)[C@H](NS(=O)(=O)N2CCCC3CN(C(=O)OC(C)(C)C)CC32)c2n[nH]c(=O)o2)c1C (stereo partly drawn) [Example 23, tert-butyl 1-(N-((1S)-2-(6-fluoro-2,3-dimethylphenyl)-1-(5-oxo-4,5-dihydro-1,3,4-oxadiazol-2-yl)propyl)sulfamoyl)-octahydro-6H-pyrrolo[3,4-b]pyridine-6-carboxylate]	1 to 10
Cc1ccc(F)c(C(C)[C@H](NS(=O)(=O)N2CCC(Cl)(Cl)C(C)C2)c2n[nH]c(=O)o2)c1C (stereo partly drawn) [Example 99, 4,4-dichloro-N-((1S)-2-(6-fluoro-2,3-dimethylphenyl)-1-(5-oxo-4,5-dihydro-1,3,4-oxadiazol-2-yl)propyl)-3-methylpiperidine-1-sulfonamide]	0.1 to 1
Cc1ccc(F)c([C@H](C)[C@H](NS(=O)(=O)N2CCC(CCl)CC2)c2n[nH]c(=O)o2)c1C [Example 40, 4-(chloromethyl)-N-((1S,2S)-2-(6-fluoro-2,3-dimethylphenyl)-1-(5-oxo-4,5-dihydro-1,3,4-oxadiazol-2-yl)propyl)piperidine-1-sulfonamide]	10 to 100
Cc1ccc(F)c([C@H](C)[C@H](NS(=O)(=O)N2CC3C(C2)C3(C)C)c2n[nH]c(=O)o2)c1C (stereo partly drawn) [Example 103, N-((1S,2S)-2-(6-fluoro-2,3-dimethylphenyl)-1-(5-oxo-4,5-dihydro-1,3,4-oxadiazol-2-yl)propyl)-6,6-dimethyl-3-azabicyclo[3.1.0]hexane-3-sulfonamide]	1 to 10
Cc1ccc(F)c([C@H](C)[C@H](NS(=O)(=O)N2CCC(F)(F)CC2)c2n[nH]c(=O)o2)c1C [Example 2, 4,4-difluoro-N-[(1S,2S)-2-(6-fluoro-2,3-dimethylphenyl)-1-(5-oxo-4H-1,3,4-oxadiazol-2-yl)propyl]piperidine-1-sulfonamide]	10 to 100
Cc1ccc(F)c(C(C)[C@H](NS(=O)(=O)N2CCC(C(F)(F)F)CC2)c2n[nH]c(=O)o2)c1C (stereo partly drawn) [Example 33, N-((1S)-2-(6-fluoro-2,3-dimethylphenyl)-1-(5-oxo-4,5-dihydro-1,3,4-oxadiazol-2-yl)propyl)-4-(trifluoromethyl)piperidine-1-sulfonamide]	1 to 10
Cc1ccc(F)c([C@H](C)[C@H](NS(=O)(=O)N2CCC(C)CC2)c2n[nH]c(=O)o2)c1C [Example 116, N-((1S,2S)-2-(6-fluoro-2,3-dimethylphenyl)-1-(5-oxo-4,5-dihydro-1,3,4-oxadiazol-2-yl)propyl)-4-methylpiperidine-1-sulfonamide]	1 to 10
COCC1CCCN(S(=O)(=O)N[C@H](c2n[nH]c(=O)o2)[C@@H](C)c2c(F)ccc(C)c2C)C1 (stereo partly drawn) [Example 130, N-((1S,2S)-2-(6-fluoro-2,3-dimethylphenyl)-1-(5-oxo-4,5-dihydro-1,3,4-oxadiazol-2-yl)propyl)-3-(methoxymethyl)piperidine-1-sulfonamide]	1 to 10
Cc1ccc(F)c([C@H](C)[C@H](NS(=O)(=O)N2CC3CCCC(C3)C2)c2n[nH]c(=O)o2)c1C [Example 42, N-((1S,2S)-2-(6-fluoro-2,3-dimethylphenyl)-1-(5-oxo-4,5-dihydro-1,3,4-oxadiazol-2-yl)propyl)-3-azabicyclo[3.3.1]nonane-3-sulfonamide]	10 to 100

Reference: US20240425490A1, “SULFAMIDE RIBONUCLEOTIDE REDUCTASE (RNR) INHIBITORS AND USES THEREOF” (Boundless Bio, Inc., priority 2021, published 2024)
